Laboratory results reported in patent publication US5476866A, “Isoxazoles” (Roussel Uclaf, priority 1993, dated 1995).

Tested on: Reverse Passive Arthus Reaction
Assay: Reverse Passive Arthus Reaction (Test 5)
Format: in vivo, male or female Wistar rats
Conditions: 50 mg/kg p.o. 1 h before challenge; paw volume at 4 h
Description: Reverse Passive Arthus Reaction (Test 5)
One hour before challenge, test compounds were administered orally to male or female Wistar rats weighing 120-200 g. After this pre-treatment period, the reaction was induced by a subplantar injection of goat anti-rat serum in the right hind paw. The left hind paw, which served as a control, was injected with saline alone. Paw volumes were determined immediately and four hours after antibody challenge. Doses are given in units of mg/kg p.o.

SMILES | Test 5 % inhibition [%]
Cc1cc(NC(=O)c2cnoc2C2CC2)ccc1Br [Example 1, 5-cyclopropyl-N-(4-bromo-3-methylphenyl)-isoxazole-4-carboxamide] | 42
O=C(Nc1ccc([N+](=O)[O-])cc1)c1cnoc1C1CC1 [Example 2, 5-cyclopropyl-N-(4-nitrophenyl)-isoxazole-4-carboxamide] | -9
N#Cc1ccc(NC(=O)c2cnoc2C2CC2)cc1 [Example 3, 5-cyclopropyl-N-(4-cyanophenyl)-isoxazole-4-carboxamide] | 41
Cc1cc(NC(=O)c2cnoc2C2CC2)ccc1Cl [Example 4, 5-cyclopropyl-N-(4-chloro-3-methylphenyl)-isoxazole-4-carboxamide] | 17
Cc1cc(NC(=O)c2cnoc2C2CC2)ccc1C#N [Example 5, 5-cyclopropyl-N-(4-cyano-3-methylphenyl)-isoxazole-4-carboxamide] | 23
Cc1cc(NC(=O)c2cnoc2C2CC2)ccc1C(F)(F)F [Example 6, 5-cyclopropyl-N-(3-methyl-4-trifluoromethylphenyl)-isoxazole-4-carboxamide] | 24

Same assay, conditions: 100 mg/kg p.o. 1 h before challenge; paw volume at 4 h

SMILES | Test 5 % inhibition [%]
Cc1cc(NC(=O)c2cnoc2C2CC2)ccc1Br [Example 1, 5-cyclopropyl-N-(4-bromo-3-methylphenyl)-isoxazole-4-carboxamide] | 26
O=C(Nc1ccc([N+](=O)[O-])cc1)c1cnoc1C1CC1 [Example 2, 5-cyclopropyl-N-(4-nitrophenyl)-isoxazole-4-carboxamide] | 27
N#Cc1ccc(NC(=O)c2cnoc2C2CC2)cc1 [Example 3, 5-cyclopropyl-N-(4-cyanophenyl)-isoxazole-4-carboxamide] | 36
Cc1cc(NC(=O)c2cnoc2C2CC2)ccc1Cl [Example 4, 5-cyclopropyl-N-(4-chloro-3-methylphenyl)-isoxazole-4-carboxamide] | 28
Cc1cc(NC(=O)c2cnoc2C2CC2)ccc1C#N [Example 5, 5-cyclopropyl-N-(4-cyano-3-methylphenyl)-isoxazole-4-carboxamide] | 34
Cc1cc(NC(=O)c2cnoc2C2CC2)ccc1C(F)(F)F [Example 6, 5-cyclopropyl-N-(3-methyl-4-trifluoromethylphenyl)-isoxazole-4-carboxamide] | 38

Tested on: Adjuvant arthritis
Assay: Adjuvant arthritis (Test 4)
Format: in vivo, male rats of a Wistar-Lewis strain
Conditions: 25 mg/kg p.o. once daily for 12 days from day of immunization; vs untreated control
Description: Adjuvant arthritis (Test 4) The investigations were carried out by the method of Pearson (Arthrit. Rheum., Vol. 2, (1959) p. 44). The experimental animals used were male rats of a Wistar-Lewis strain having a body weight between 130 to 200 g. The compounds to be tested were administered orally once daily for 12 days, starting on the day of immunization. The animals of a control group received only the vehicle. Each preparation and control group comprised 6 animals. The criterion used to determine activity was the percentage reduction in the increase in paw volume compared to that of the untreated control group.

SMILES | Test 4 % inhibition (percentage reduction in the increase in paw volume) [%]
Cc1cc(NC(=O)c2cnoc2C2CC2)ccc1Br [Example 1, 5-cyclopropyl-N-(4-bromo-3-methylphenyl)-isoxazole-4-carboxamide] | -16
O=C(Nc1ccc([N+](=O)[O-])cc1)c1cnoc1C1CC1 [Example 2, 5-cyclopropyl-N-(4-nitrophenyl)-isoxazole-4-carboxamide] | 92
N#Cc1ccc(NC(=O)c2cnoc2C2CC2)cc1 [Example 3, 5-cyclopropyl-N-(4-cyanophenyl)-isoxazole-4-carboxamide] | 90
Cc1cc(NC(=O)c2cnoc2C2CC2)ccc1Cl [Example 4, 5-cyclopropyl-N-(4-chloro-3-methylphenyl)-isoxazole-4-carboxamide] | 22
Cc1cc(NC(=O)c2cnoc2C2CC2)ccc1C#N [Example 5, 5-cyclopropyl-N-(4-cyano-3-methylphenyl)-isoxazole-4-carboxamide] | 88
Cc1cc(NC(=O)c2cnoc2C2CC2)ccc1C(F)(F)F [Example 6, 5-cyclopropyl-N-(3-methyl-4-trifluoromethylphenyl)-isoxazole-4-carboxamide] | 42

Tested on: not listed separately
Assay: Kinetic data: plasma concentrations after oral administration to mice
Format: in vivo
Conditions: 30 mg/kg oral, fraction of known compound's half-life (approximately 21.4 hours)
Description: A comparison was made between a known compound, namely 5 -cyclopropyl-N-(4-trifluoromethylphenyl)-isoxazole-4-carboxamide and the compounds of the present invention, namely compounds of Examples 5 and 6 above. The compounds were administered orally to mice at doses of 30 mg/kg and plasma concentrations were monitored for 72 hours.

SMILES | metabolic half-life relative to the known compound
Cc1cc(NC(=O)c2cnoc2C2CC2)ccc1C#N [Example 5, 5-cyclopropyl-N-(4-cyano-3-methylphenyl)-isoxazole-4-carboxamide] | about one third
Cc1cc(NC(=O)c2cnoc2C2CC2)ccc1C(F)(F)F [Example 6, 5-cyclopropyl-N-(3-methyl-4-trifluoromethylphenyl)-isoxazole-4-carboxamide] | about one third

Same assay, conditions: mouse, 30 mg/kg oral, plasma concentrations monitored for 72 hours, read-out: metabolic half-life (converted)

SMILES | half-life [h]
O=C(Nc1ccc(C(F)(F)F)cc1)c1cnoc1C1CC1 [5-cyclopropyl-N-(4-trifluoromethylphenyl)-isoxazole-4-carboxamide, reference compound] | ~21.4
Cc1cc(NC(=O)c2cnoc2C2CC2)ccc1C#N [Example 5, 5-cyclopropyl-N-(4-cyano-3-methylphenyl)-isoxazole-4-carboxamide] | 7.1
Cc1cc(NC(=O)c2cnoc2C2CC2)ccc1C(F)(F)F [Example 6, 5-cyclopropyl-N-(3-methyl-4-trifluoromethylphenyl)-isoxazole-4-carboxamide] | 8.2

Tested on: Carrageenan rat paw oedema
Assay: Carrageenan rat paw oedema (Test 1)
Format: in vivo, male rats CFHB
Conditions: 50 mg/kg p.o.; 1 h before carrageenan; oedema assessed 3 h later
Description: Carrageenan rat paw oedema (Test 1)
One hour after the oral administration of the test compounds or control vehicle to groups of 6 to 12 male rats CFHB with a weight range of 160-180 g, 1 mg of carrageenan dissolved in 0.2 ml of saline was injected into the right hind foot pad. Contralateral paws received control saline injections and paw oedema responses were assessed three hours later.

SMILES | Test 1 % inhibition [%]
Cc1cc(NC(=O)c2cnoc2C2CC2)ccc1Br [Example 1, 5-cyclopropyl-N-(4-bromo-3-methylphenyl)-isoxazole-4-carboxamide] | 12
O=C(Nc1ccc([N+](=O)[O-])cc1)c1cnoc1C1CC1 [Example 2, 5-cyclopropyl-N-(4-nitrophenyl)-isoxazole-4-carboxamide] | 0
N#Cc1ccc(NC(=O)c2cnoc2C2CC2)cc1 [Example 3, 5-cyclopropyl-N-(4-cyanophenyl)-isoxazole-4-carboxamide] | 43
Cc1cc(NC(=O)c2cnoc2C2CC2)ccc1Cl [Example 4, 5-cyclopropyl-N-(4-chloro-3-methylphenyl)-isoxazole-4-carboxamide] | 11
Cc1cc(NC(=O)c2cnoc2C2CC2)ccc1C#N [Example 5, 5-cyclopropyl-N-(4-cyano-3-methylphenyl)-isoxazole-4-carboxamide] | 18
Cc1cc(NC(=O)c2cnoc2C2CC2)ccc1C(F)(F)F [Example 6, 5-cyclopropyl-N-(3-methyl-4-trifluoromethylphenyl)-isoxazole-4-carboxamide] | 12

Tested on: Delayed-type hypersensitivity mouse paw oedema
Assay: Delayed-type hypersensitivity mouse paw oedema (DTH-M) (Test 2)
Format: in vivo, male mice CD-1
Conditions: 30 mg/kg p.o.; daily days 4-6, twice day 7; 24 h after MBSA challenge
Description: Delayed-type hypersensitivity mouse paw oedema (DTH-M) (Test 2)
Groups of 8 to 10 male mice CD-1 with a weight range of 25-30 g were sensitized by the subcutaneous injection of 1 mg of methylated bovine serum albumin (MBSA) in 0.2 ml volumes of saline/Freund's complete adjuvant (FCA) emulsion. Negative control groups received injections of saline/FCA emulsion. DTH paw oedema responses were assessed twenty-four hours after the right hind foot pad challenge with 0.1 mg of MBSA in 0.05 ml volumes of saline on day seven after sensitization. Contralateral paws received control saline injections. The test compounds or control vehicles were orally administered daily on days four, five, six and twice on day seven, one hour before and six hours after MBSA challenge.

SMILES | Test 2 % inhibition [%]
N#Cc1ccc(NC(=O)c2cnoc2C2CC2)cc1 [Example 3, 5-cyclopropyl-N-(4-cyanophenyl)-isoxazole-4-carboxamide] | 43
Cc1cc(NC(=O)c2cnoc2C2CC2)ccc1C#N [Example 5, 5-cyclopropyl-N-(4-cyano-3-methylphenyl)-isoxazole-4-carboxamide] | 41

Same assay, conditions: 100 mg/kg p.o.; daily days 4-6, twice day 7; 24 h after MBSA challenge

SMILES | Test 2 % inhibition [%]
Cc1cc(NC(=O)c2cnoc2C2CC2)ccc1Br [Example 1, 5-cyclopropyl-N-(4-bromo-3-methylphenyl)-isoxazole-4-carboxamide] | 41
O=C(Nc1ccc([N+](=O)[O-])cc1)c1cnoc1C1CC1 [Example 2, 5-cyclopropyl-N-(4-nitrophenyl)-isoxazole-4-carboxamide] | 19
Cc1cc(NC(=O)c2cnoc2C2CC2)ccc1Cl [Example 4, 5-cyclopropyl-N-(4-chloro-3-methylphenyl)-isoxazole-4-carboxamide] | 64
Cc1cc(NC(=O)c2cnoc2C2CC2)ccc1C(F)(F)F [Example 6, 5-cyclopropyl-N-(3-methyl-4-trifluoromethylphenyl)-isoxazole-4-carboxamide] | 34

Tested on: Delayed-type hypersensitivity rat paw oedema
Assay: Delayed-type hypersensitivity rat paw oedema (Test 3)
Format: in vivo, male rats CFHB
Conditions: 10 mg/kg p.o.; daily days 4-6, twice day 7; 24 h after antigen challenge

SMILES | Test 3 % inhibition [%]
N#Cc1ccc(NC(=O)c2cnoc2C2CC2)cc1 [Example 3, 5-cyclopropyl-N-(4-cyanophenyl)-isoxazole-4-carboxamide] | 60
Cc1cc(NC(=O)c2cnoc2C2CC2)ccc1C#N [Example 5, 5-cyclopropyl-N-(4-cyano-3-methylphenyl)-isoxazole-4-carboxamide] | 62

Same assay, conditions: 50 mg/kg p.o.; daily days 4-6, twice day 7; 24 h after antigen challenge

SMILES | Test 3 % inhibition [%]
Cc1cc(NC(=O)c2cnoc2C2CC2)ccc1Br [Example 1, 5-cyclopropyl-N-(4-bromo-3-methylphenyl)-isoxazole-4-carboxamide] | 24
O=C(Nc1ccc([N+](=O)[O-])cc1)c1cnoc1C1CC1 [Example 2, 5-cyclopropyl-N-(4-nitrophenyl)-isoxazole-4-carboxamide] | 52
Cc1cc(NC(=O)c2cnoc2C2CC2)ccc1Cl [Example 4, 5-cyclopropyl-N-(4-chloro-3-methylphenyl)-isoxazole-4-carboxamide] | 32
Cc1cc(NC(=O)c2cnoc2C2CC2)ccc1C(F)(F)F [Example 6, 5-cyclopropyl-N-(3-methyl-4-trifluoromethylphenyl)-isoxazole-4-carboxamide] | 57
